Reference: ChEMBL document CHEMBL1201862, “PubChem BioAssay data set” (2004)
Activity calls are given as the source filed them.

How the values were obtained:
[1] = biological target: T1, COUP transcription factor 2 (Homo sapiens, UniProt P24468); experiment: Luminescence-based cell-based high throughput dose response assay to identify inhibitors of COUP-TFII (NR2F2).; type: functional;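 note: HEK293 cells transiently cotransfected with COUP-TFII expression vector and reporter; luciferase reporter luminescence driven by COUP-TFII from the pX2-168 reporter plasmid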
T1 sequence (P24468 whole entry): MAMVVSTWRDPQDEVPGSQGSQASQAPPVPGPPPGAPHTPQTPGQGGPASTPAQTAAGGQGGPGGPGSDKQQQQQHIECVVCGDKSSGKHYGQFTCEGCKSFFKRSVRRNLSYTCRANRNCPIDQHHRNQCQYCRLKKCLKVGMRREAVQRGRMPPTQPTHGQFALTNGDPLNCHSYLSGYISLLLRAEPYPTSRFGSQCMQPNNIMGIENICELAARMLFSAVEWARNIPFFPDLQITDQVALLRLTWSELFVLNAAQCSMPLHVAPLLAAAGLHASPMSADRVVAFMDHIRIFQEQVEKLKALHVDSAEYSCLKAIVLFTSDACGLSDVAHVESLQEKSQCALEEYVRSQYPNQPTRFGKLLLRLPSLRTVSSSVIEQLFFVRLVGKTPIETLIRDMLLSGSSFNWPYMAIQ

Galanin receptor type 3 = biological target: T2, Galanin receptor type 3 (Homo sapiens, UniProt O60755); experiment: Fluorescence-based cell-based primary high throughput dose response assay to identify antagonists of the Galanin Receptor 3 (GalR3).; type: functional
T2 sequence (O60755 whole entry): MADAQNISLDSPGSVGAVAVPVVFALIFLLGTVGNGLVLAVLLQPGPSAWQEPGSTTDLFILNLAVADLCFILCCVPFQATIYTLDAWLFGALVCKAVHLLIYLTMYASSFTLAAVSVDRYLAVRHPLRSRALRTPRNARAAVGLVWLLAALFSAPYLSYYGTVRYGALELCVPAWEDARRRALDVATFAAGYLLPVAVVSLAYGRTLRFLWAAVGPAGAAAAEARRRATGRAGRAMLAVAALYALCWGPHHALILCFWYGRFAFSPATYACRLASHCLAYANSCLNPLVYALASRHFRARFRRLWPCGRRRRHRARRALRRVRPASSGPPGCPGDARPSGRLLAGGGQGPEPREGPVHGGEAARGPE

[2] = microbe, parasite or virus in culture; type: functional; conditions: Mycobacterium tuberculosis
[3] = inhibitors of HIV Env-driven cell fusion, dose response, cherry-pick (AID 652057); type: functional, cell-based
[4] = cytotoxicity in KRAS-transformed pancreatic duct cells, primary screen, cell-based, fluorescence, HTS (AID 431); type: functional; conditions: Homo sapiens;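 note: cell line used: HPDE-C7K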
[5] = cytotoxicity in HPDE-C7 cells, cell-based, fluorescence, HTS (AID 430); type: functional; conditions: Homo sapiens
[6] = CEM21 lymphoblast cell cytotoxicity, dose response, cytotoxicity control for viral fusion inhibitor project, CellTiter-Glo luminescence, cherry-picked (AID 652042); type: functional, cell-based;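 note: potency for signal decrease meaning cytotoxicity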
[7] = control 3'UTR Renilla luciferase suppression, dose response, counter-screen for Shn3 inhibitor project, cell-based, Clone20-Shn3RL, cherry-picked (AID 624133); type: functional
[8] = Shn3 3'UTR reporter inhibitors, dose response, cell-based, Clone20 osteoblasts, firefly luciferase, cherry-picked (AID 624132); type: functional;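 note: firefly luciferase luminescence from reporter carrying the Shn3 3'UTR in osteoblasts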
[9] = ZM109 Env clade C HIV-1 fusion inhibitors, dose response, HeLa effector, CEM target cells, luciferase, cherry-pick (AID 652058); type: functional, cell-based
[10] = inhibitors of clade B AD8 Env fusion, dose response, cell-based, cherry-pick (AID 652062); type: functional;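 note: luciferase signal from cell-cell fusion driven by HIV-1 clade B AD8 Env; potency is for inhibitors of fusion seen as a drop in luminescence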
HEK293 = experiment: inhibitors of LMP1-driven NF-kB reporter, dose response, cell-based, HEK293, luciferase, cherry-pick (AID 588343); type: functional; conditions: Homo sapiens
[11] = HepG2 cell cytotoxicity, dose response, cytotoxicity control for Shn3 inhibitor project, CellTiter-Glo, cherry-picked (AID 624134); type: functional, cell-based
[12] = cytotoxicity in HEK-293T cells, dose response, cytotoxicity control for TCR NF-kB inhibitor project, luminescence, T-cell screen hits (AID 489026); type: functional, cell-based;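 note: cells exposed to compound about 14 hours before the viability readout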
[13] = biological target: T3, Short transient receptor potential channel 4 (Mus musculus, UniProt Q9QUQ5); experiment: mouse TRPC4 channel activators, dose response, cell-based, HEK293 TRPC4/mu-opioid, Fluo-4 calcium (AID 434937); type: functional
T3 sequence (Q9QUQ5 whole entry): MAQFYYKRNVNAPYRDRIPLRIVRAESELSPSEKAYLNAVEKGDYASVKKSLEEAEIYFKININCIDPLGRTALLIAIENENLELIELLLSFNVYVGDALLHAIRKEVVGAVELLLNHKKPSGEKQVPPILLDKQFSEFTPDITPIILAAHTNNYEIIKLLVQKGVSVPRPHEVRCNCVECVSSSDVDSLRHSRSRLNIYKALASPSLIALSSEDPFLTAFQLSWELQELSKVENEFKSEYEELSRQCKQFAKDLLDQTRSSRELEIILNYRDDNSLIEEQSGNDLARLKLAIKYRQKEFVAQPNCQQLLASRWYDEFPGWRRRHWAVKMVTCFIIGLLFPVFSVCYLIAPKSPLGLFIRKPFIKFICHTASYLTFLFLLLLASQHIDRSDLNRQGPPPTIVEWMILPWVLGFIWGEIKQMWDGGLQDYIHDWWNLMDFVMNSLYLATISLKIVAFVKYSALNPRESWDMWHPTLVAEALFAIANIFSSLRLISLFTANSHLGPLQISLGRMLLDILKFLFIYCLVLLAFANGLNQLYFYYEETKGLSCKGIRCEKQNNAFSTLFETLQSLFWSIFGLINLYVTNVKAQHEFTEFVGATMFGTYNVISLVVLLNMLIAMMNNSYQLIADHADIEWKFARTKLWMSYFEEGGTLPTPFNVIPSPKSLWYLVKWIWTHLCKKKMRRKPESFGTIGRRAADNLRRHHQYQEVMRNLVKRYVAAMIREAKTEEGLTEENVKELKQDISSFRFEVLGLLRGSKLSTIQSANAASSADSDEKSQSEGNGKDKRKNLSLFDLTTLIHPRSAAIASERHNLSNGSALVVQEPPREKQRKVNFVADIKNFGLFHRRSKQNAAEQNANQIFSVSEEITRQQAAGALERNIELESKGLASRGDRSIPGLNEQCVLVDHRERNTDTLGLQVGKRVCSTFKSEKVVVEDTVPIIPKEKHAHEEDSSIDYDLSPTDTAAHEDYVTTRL

Leucine aminopeptidase = biological target: T4, Leucine aminopeptidase (Plasmodium falciparum 3D7, UniProt Q8IL11); experiment: P. falciparum M17LAP inhibitors, primary screen, biochemical, fluorogenic H-Leu-NHMec substrate, 1536-well (AID 1619); type: functional
T4 sequence (Q8IL11 whole entry): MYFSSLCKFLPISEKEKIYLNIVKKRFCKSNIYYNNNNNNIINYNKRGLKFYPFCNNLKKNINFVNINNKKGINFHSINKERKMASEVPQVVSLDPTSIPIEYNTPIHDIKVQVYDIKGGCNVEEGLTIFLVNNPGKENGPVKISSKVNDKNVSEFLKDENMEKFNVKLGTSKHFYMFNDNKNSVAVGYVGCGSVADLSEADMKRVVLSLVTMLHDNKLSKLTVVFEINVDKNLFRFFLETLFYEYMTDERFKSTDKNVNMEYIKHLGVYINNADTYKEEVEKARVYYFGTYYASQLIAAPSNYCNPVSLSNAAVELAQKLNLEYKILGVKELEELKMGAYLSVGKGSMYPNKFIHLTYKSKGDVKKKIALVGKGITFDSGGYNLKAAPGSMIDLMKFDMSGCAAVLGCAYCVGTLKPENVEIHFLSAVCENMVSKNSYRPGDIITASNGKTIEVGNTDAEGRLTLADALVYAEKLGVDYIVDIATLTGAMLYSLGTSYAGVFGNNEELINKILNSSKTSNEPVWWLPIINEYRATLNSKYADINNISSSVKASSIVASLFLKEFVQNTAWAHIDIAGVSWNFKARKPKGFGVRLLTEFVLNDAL

[14] = biological target: Induced myeloid leukemia cell differentiation protein Mcl-1 (Homo sapiens, UniProt Q07820); type: functional
Caspase-6 = biological target: T5, Caspase-6 (Homo sapiens, UniProt P55212); experiment: human caspase-6 inhibitors, dose response, biochemical, VEID-R110 fluorescence, cherry-pick (AID 720632)
T5 sequence (P55212 whole entry): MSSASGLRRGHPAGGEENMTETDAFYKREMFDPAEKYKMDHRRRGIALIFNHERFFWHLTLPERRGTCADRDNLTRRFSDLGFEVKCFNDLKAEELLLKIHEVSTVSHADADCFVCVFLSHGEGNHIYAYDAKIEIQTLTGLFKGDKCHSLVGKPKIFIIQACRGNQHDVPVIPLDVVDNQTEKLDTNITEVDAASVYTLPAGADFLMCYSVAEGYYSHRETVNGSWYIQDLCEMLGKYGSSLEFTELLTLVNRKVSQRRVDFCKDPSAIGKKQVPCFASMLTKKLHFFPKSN

[15] = growth suppression of beta-catenin-knockout colon cells, dose response, cell-based, HCT116, human colon tumor (AID 1045); type: functional;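 note: HCT116 colon tumor cells with beta catenin knocked out; cells exposed to compound for 60 hours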
[16] = growth suppression of PTEN-null colon cells, dose response, cell-based, HCT116 PTEN knockout (AID 1047); type: functional;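 note: HCT116 colon tumor cells with PTEN knocked out; cells exposed to compound for 60 hours before readout; potency for loss of cell viability measured by luminescence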
INS1 = experiment: beta cell apoptosis inhibitors, cytokine rescue, dose response, luminescence, retest (AID 449756); type: functional, cell-based; conditions: Rattus norvegicus;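 note: cell death triggered by IL-1 beta plus TNF-alpha plus IFN-gamma mixture; protective hits raise ATP signal compared with cytokine alone wells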
[17] = system: Streptococcus sp. 'group A'; experiment: growth inhibition of control SK(-) GAS strain, dose response, counter-screen for streptokinase expression inhibitor project, luminescence, kanamycin, BacTiterGlo, confirmation (AID 1900); type: functional, organism-based
Streptococcus = experiment: Group A Streptococcus viability loss, dose response, counter-screen for streptokinase expression inhibitor project, luminescence, BacTiterGlo (AID 1915); type: functional, organism-based;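 note: potency for reduction of bacterial viability or growth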
[18] = P. falciparum ATP4 D1247Y mutant growth inhibitors, dose response, NITD609-resistant line, SYBR Green, dry powder (AID 1159571); type: functional, cell-based;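 note: parasites synchronized at ring stage by sorbitol before testing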
[19] = P. falciparum Dd2 growth inhibitors, dose response, SYBR Green, cherry-picked samples (AID 1159567); type: functional, cell-based
[20] = HepG2 cell cytotoxicity, dose response, cytotoxicity control, plate reader, dry powder samples (AID 1159569); type: functional, cell-based;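 note: inhibitor potency with signal falling toward the positive control level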
[21] = P. falciparum 3D7-ScDHODH growth inhibitors, dose response, SYBR Green, dry powder samples (AID 1159570); type: functional, cell-based;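 note: parasite growth measured after 72 hours of compound exposure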
[22] = P. falciparum Dd2 growth inhibitors, dose response, SYBR Green, dry powder samples (AID 1159566); type: functional, cell-based;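 note: potency for growth inhibition with lower SYBR green DNA signal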

Chain of Induced myeloid leukemia cell differentiation protein Mcl-1 (Q07820 whole entry): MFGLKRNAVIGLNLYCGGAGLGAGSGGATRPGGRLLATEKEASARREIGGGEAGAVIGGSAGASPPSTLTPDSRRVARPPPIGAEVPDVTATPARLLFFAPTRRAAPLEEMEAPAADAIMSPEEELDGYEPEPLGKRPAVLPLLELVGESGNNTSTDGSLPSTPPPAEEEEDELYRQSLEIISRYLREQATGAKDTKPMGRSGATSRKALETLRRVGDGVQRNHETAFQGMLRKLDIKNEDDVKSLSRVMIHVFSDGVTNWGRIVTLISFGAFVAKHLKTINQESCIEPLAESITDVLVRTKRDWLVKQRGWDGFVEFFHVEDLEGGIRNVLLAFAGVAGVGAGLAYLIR

## c1ccc(CNc2ncnc3ccccc23)cc1
[1]
  IC50: 10.3 µM (inactive)
Galanin receptor type 3
  IC50: 2.42 µM (active)

## Cc1ccc2[nH]c3c(N4CCN(Cc5ccccc5)CC4)ncnc3c2c1
[2]
  CC50: 35.2 µM (active)
[3]
  AC50: 8.98 µM (active)
[4]
  EC50: 16.8 µM (active)
[5]
  EC50: 14.1 µM (active)
[6]
  AC50: 26.2 µM (active)
[7]
  AC50: 20.3 µM (active)
[8]
  AC50: 4.18 µM (active)
[9]
  AC50: 0.671 µM (active)
[10]
  AC50: 19.5 µM (active)
HEK293
  AC50: 11.8 µM (active)
[11]
  AC50: 30.8 µM (active)

## O=C(Nc1ccncc1)c1ccc(Cl)c(S(=O)(=O)N2CCc3ccccc32)c1
[1]
  IC50: 4.67 µM (active)
[6]
  AC50: 51.1 µM (active)
[7]
  AC50: 16.6 µM (active)
[8]
  AC50: 3.19 µM (active)
[12]
  IC50: 62.9 µM (inactive)
[13]
  EC50: 5.31 µM (active)
[10]
  AC50: 2.18 µM (active)
[11]
  AC50: 6.33 µM (active)

## NC(=O)c1c(Nc2nc3c(F)cccc3s2)sc2c1CCCC2
Leucine aminopeptidase
  IC50: 81.8 µM (active)
[14]
  IC50: 2.76 µM (active)

## COc1cc(C(=O)OCC(=O)N2CCCC2=O)cc(OC)c1C
Caspase-6
  AC50: 18.5 µM (active)

## O=C(CC(Nc1cccc(Cl)c1Cl)C(=O)O)c1ccccc1 (stereo unspecified)
Leucine aminopeptidase
  IC50: 14.2 µM (active)

## O=C(Oc1ccccc1)c1cccc2cccnc12
[4]
  EC50: > 20 µM (not active)
[5]
  EC50: 5.75 µM (active)
[15]
  EC50: 11.5 µM (active)
[16]
  EC50: 11.3 µM (active)

## O=P(NS(=O)(=O)c1ccc(Br)cc1)(Oc1ccccc1)Oc1ccccc1
Leucine aminopeptidase
  IC50: 30.1 µM (active)

## Oc1ccc(COCc2ccccc2)c2cccnc12
INS1
  AC50: 1.77 µM (active)
[4]
  EC50: 8.49 µM (active)
[5]
  EC50: 10.4 µM (active)
[17]
  EC50: 2.14 µM (active)
Streptococcus
  EC50: 3.25 µM (active)

## CCc1ccc(-c2nn(Cc3ccccc3)cc2/C=C/C(=O)O)cc1
Leucine aminopeptidase
  IC50: 31.5 µM (active)

## CC(C)CN1C(=O)NC2(CCCc3ccccc32)C1=O (stereo unspecified)
Caspase-6
  AC50: 51.7 µM (active)

## COc1ccc(-c2ccccc2[C@H]2[C@@H](C#N)N(C(=O)NC3CCCCC3)[C@H]2CO)cc1
[18]
  AC50: 8.21 µM (active)
[19]
  AC50: 3.13 µM (active)
[20]
  AC50: > 100 µM (inactive)
[21]
  AC50: 4.54 µM (active)
[22]
  AC50: 3.88 µM (active)

## COc1ccccc1NC(=O)N1CCCCN2[C@H](CO)[C@H](c3ccc(C#Cc4ccccc4)cc3)[C@@H]2C1
[18]
  AC50: 0.0817 µM (active)
[19]
  AC50: < 0.3 µM (active)
[20]
  AC50: > 100 µM (inactive)
[21]
  AC50: 0.0745 µM (active)
[22]
  AC50: 0.118 µM (active)

## CO[C@H]1CN(C)C(=O)c2cc(NC(=O)c3ccccc3F)ccc2OC[C@H](C)N(C(=O)c2ccccc2F)C[C@H]1C
[18]
  AC50: 1.53 µM (active)
[19]
  AC50: 2.47 µM (active)
[20]
  AC50: > 100 µM (inactive)
[21]
  AC50: 2.93 µM (active)
[22]
  AC50: 1.78 µM (active)

## CO[C@H]1CN(C)C(=O)c2ccc(NC(=O)Nc3ccc(C(F)(F)F)cc3)cc2OC[C@H](C)NC[C@H]1C
[18]
  AC50: 2.17 µM (active)
[19]
  AC50: 3.01 µM (active)
[20]
  AC50: 26.9 µM (active)
[21]
  AC50: 1.37 µM (active)
[22]
  AC50: 2.16 µM (active)

## CCCCC(=O)O[C@H]1CC[C@H]2[C@@H]3CCc4cc(O)ccc4[C@H]3CC[C@]12C [ESTRADIOL VALERATE]
[4]
  EC50: > 20 µM (not active)
[5]
  EC50: 18.9 µM (active)
[17]
  EC50: 2.3 µM (active)
Streptococcus
  EC50: 2.29 µM (active)
